Values after ≈ are worked out from the molar mass of the structure shown. Like-named read-outs stand apart in the source and are kept apart here.
Legend:
[1] = tested on: A. niger; assay: MFC by subculturing; type: cell-based
Method: (§1) The minimum bactericidal concentration (MBC) and minimum fungicidal concentration (MFC) of the synthesized benzimidazole derivatives was determined by subculturing 100 µl of culture from each tube that remained clear in MIC determination onto sterilized petri-plates containing fresh agar medium. The petri-plates were incubated and analyzed for microbial growth visually.

[2] = tested on: C. albicans; assay: MFC by subculturing; type: cell-based
Method: as §1

[3] = tested on: A. niger; assay: microbe, parasite or virus in culture; conditions: Aspergillus niger, 168 h, read-out: MIC A. niger
[4] = tested on: B. subtilis; assay: MBC by subculturing; type: cell-based
Method: as §1

[5] = tested on: S. typhi; assay: MBC by subculturing; type: cell-based; conditions: Salmonella enterica, read-out: MBC S. typhi
Method: as §1

[6] = tested on: S. aureus; assay: MBC by subculturing; type: cell-based; conditions: Staphylococcus aureus
Method: as §1

[7] = tested on: B. cereus; assay: MBC by subculturing; type: cell-based
Method: as §1

[8] = tested on: E. coli; assay: MBC by subculturing; type: cell-based; conditions: Escherichia coli
Method: as §1

[9] = tested on: E. coli; assay: Tube dilution MIC; conditions: Escherichia coli, 24 h, read-out: MIC E. coli
[10] = tested on: M. tuberculosis H37Rv; assay: MIC by microplate alamar blue assay; type: cell-based; conditions: Mycobacterium tuberculosis, NA = no activity, read-out: MIC against M. tuberculosis H37Rv
[11] = tested on: S. aureus; assay: Tube dilution MIC; conditions: Staphylococcus aureus, 24 h, read-out: MIC S. aureus
[12] = tested on: C. albicans; assay: microbe, parasite or virus in culture; conditions: Candida albicans, 48 h, read-out: MIC C. albicans
[13] = tested on: B. cereus; assay: Tube dilution MIC; conditions: Bacillus cereus, 24 h, read-out: MIC B. cereus
[14] = tested on: S. typhi; assay: Tube dilution MIC; type: cell-based; conditions: Salmonella enterica, 24 h, read-out: MIC S. typhi
[15] = tested on: M. tuberculosis H37Rv (NCFT/TB/537); assay: Well diffusion susceptibility test (zone of inhibition); type: cell-based; conditions: Mycobacterium tuberculosis, 672 h, read-out: Diameter of zone of inhibition against H37Rv (NCFT/TB/537), wells of 8 mm, 50 µg/ml test compound, 25 µg/ml standard drug, 4 weeks, NA = no activity
[16] = tested on: M. tuberculosis H37Rv; assay: Minimum lethal concentration (MLC); type: cell-based; conditions: Mycobacterium tuberculosis, NA = no activity, read-out: MLC against M. tuberculosis H37Rv
[17] = tested on: B. subtilis; assay: Tube dilution MIC; conditions: Bacillus subtilis, 24 h, read-out: MIC B. subtilis
[18] = biological target: mycobacterial isocitrate lyase (Mycobacterium tuberculosis, UniProt P9WKK7); assay: Mycobacterial isocitrate lyase (ICL) assay; type: biochemical, M. tuberculosis H37Rv; conditions: read-out: Percent inhibition of enzyme, M. ICL activity
Method: The compounds found potent in in vivo evaluation were assayed for inhibition of mycobacterial enzymes viz., isocitrate lyase, pantothenate synthetase and chorismate mutase.
Isocitrate lyase activity was assayed according to the protocol reported by Dixon and Kornberg (glyoxylate phenyl hydrazone formation) at 10 μM of the compounds.

[19] = In vivo LD50, ED50 and toxic dose in mice models; conditions: mouse, dose that killed 50% of the mice population within the group
Method: The LD50 and ED50 were determined for the active compounds in mice models infected with Mycobacterium H37Rv (Table 4). […] Thus, ED50 of 1.34 mg/kg was considered safe for each of the compounds. It was observed that this dose was effective and safe for mice in different groups before infecting the mice models with specific TB bacteria as no mortality of any single animal was recorded.
The LD50 (lethal dose) and ED50 (optimum/effective dose) doses were determined for the active compounds in mice models infected with Mycobacterium H37Rv via ethical permission no., NCFT/EC/16/2313 assigned to Collaborative Research Group (CRG), NCFT, New Delhi, India.

[20] = tested on: HCT116 (human colorectal) cell line; assay: Sulforhodamine-B (SRB) cytotoxicity assay; type: cell-based; conditions: HCT-116, SRB assay, HCT116 cell line, read-out: IC50 HCT116
[21] = tested on: MCF7 (human breast cancer) cell line; assay: Sulforhodamine-B (SRB) cytotoxicity assay; type: cell-based; conditions: SRB assay, MCF7 cell line, read-out: IC50 MCF7
[22] = Aspergillus niger; read-out: MFC A. niger
[23] = Candida albicans; read-out: MFC C. albicans
[24] = Bacillus subtilis; read-out: MBC B. subtilis
[25] = Bacillus cereus; read-out: MBC B. cereus

mycobacterial isocitrate lyase, sequence (P9WKK7 whole entry): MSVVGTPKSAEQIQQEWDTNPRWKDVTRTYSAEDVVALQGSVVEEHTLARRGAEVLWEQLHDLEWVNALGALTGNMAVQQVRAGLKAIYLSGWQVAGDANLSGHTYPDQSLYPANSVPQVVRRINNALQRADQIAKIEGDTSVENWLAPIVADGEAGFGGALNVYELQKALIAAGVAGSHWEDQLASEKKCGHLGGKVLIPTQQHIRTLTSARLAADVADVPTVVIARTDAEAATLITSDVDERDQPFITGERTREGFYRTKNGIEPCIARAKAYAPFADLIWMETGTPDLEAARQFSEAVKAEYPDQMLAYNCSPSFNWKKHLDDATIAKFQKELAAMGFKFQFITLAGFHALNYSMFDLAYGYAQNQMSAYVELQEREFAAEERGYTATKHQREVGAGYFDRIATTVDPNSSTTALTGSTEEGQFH

Row | SMILES | MFC [1, 22] | MFC [2, 23] | MIC [3] | MBC [4, 24] | MBC [5] | MBC [6] | MBC [7, 25] | MBC [8] | MIC [9] | MIC [10] | MIC [11] | MIC [12] | MIC [13] | MIC [14] | zone of inhibition at 50 µg/mL [15] | MBC [16] | MIC [17] | other results
1 | Cc1ccc(NC(=O)CSc2nc3ccccc3n2C(=O)c2ccccc2)c(C)c1 [Compound 20, 2-(1-Benzoyl-1H-benzo[d]imidazol-2-ylthio)-N-(2,4-dimethylphenyl)acetamide] | > 50 µg/mL | 25 µg/mL (≈ 60.2 µM) | 30 µM (≈ 12.5 µg/mL) | 50 µg/mL (≈ 120 µM) | 50 µg/mL (≈ 120 µM) | 50 µg/mL (≈ 120 µM) | > 50 µg/mL | > 50 µg/mL | 30 µM (≈ 12.5 µg/mL) | 15 µg/mL (≈ 36.1 µM) | 30 µM (≈ 12.5 µg/mL) | 15 µM (≈ 6.23 µg/mL) | 30 µM (≈ 12.5 µg/mL) | 30 µM (≈ 12.5 µg/mL) | 10 mm | 28 µg/mL (≈ 67.4 µM) | 30 µM (≈ 12.5 µg/mL) | 
2 | COc1ccc(NC(=O)CSc2nc3ccccc3n2C(=O)c2ccccc2)cc1 [Compound 18, 2-(1-Benzoyl-1H-benzo[d]imidazol-2-ylthio)-N-(4-methoxyphenyl)acetamide] |  |  | 30 µM (≈ 12.5 µg/mL) |  | > 50 µg/mL | > 50 µg/mL |  | 50 µg/mL (≈ 120 µM) | 30 µM (≈ 12.5 µg/mL) | 12.5 µg/mL (≈ 29.9 µM) | 30 µM (≈ 12.5 µg/mL) | 15 µM (≈ 6.26 µg/mL) | 30 µM (≈ 12.5 µg/mL) | 30 µM (≈ 12.5 µg/mL) | > 20 mm | 25 µg/mL (≈ 59.9 µM) | 30 µM (≈ 12.5 µg/mL) | MFC ([1]; Aspergillus niger, read-out: MFC A. niger): > 50 µg/mL; MFC ([2]; Candida albicans, read-out: MFC C. albicans): 50 µg/mL (≈ 120 µM); MBC ([4]; Bacillus subtilis, read-out: MBC B. subtilis): > 50 µg/mL; MBC ([7]; Bacillus cereus, read-out: MBC B. cereus): > 50 µg/mL; inhibition at 10 µM [18]: 64.6%; LD50 [19]: 3.15 mg/kg
3 | [H]/N=C(/N)N[C@H]1[C@H](O)[C@@H](O)[C@H](O[C@@H]2O[C@@H](C)[C@](O)(C=O)[C@H]2O[C@@H]2O[C@@H](CO)[C@H](O)[C@@H](O)[C@@H]2NC)[C@@H](N/C(N)=N\[H])[C@@H]1O [Streptomycin, reference compound] |  |  |  |  |  |  |  |  |  | 12.5 µg/mL (≈ 21.5 µM) |  |  |  |  | > 20 mm | 25 µg/mL (≈ 43 µM) |  | 
4 | O=C(CSc1nc2ccccc2n1C(=O)c1ccccc1)Nc1cccc(Cl)c1 [Compound 5, 2-(1-Benzoyl-1H-benzo[d]imidazol-2-ylthio)-N-(3-chlorophenyl)acetamide] | > 50 µg/mL | 50 µg/mL (≈ 119 µM) | 30 µM (≈ 12.7 µg/mL) | 50 µg/mL (≈ 119 µM) | 50 µg/mL (≈ 119 µM) | 50 µg/mL (≈ 119 µM) | > 50 µg/mL | 50 µg/mL (≈ 119 µM) | 30 µM (≈ 12.7 µg/mL) | 17.8 µg/mL (≈ 42.2 µM) | 30 µM (≈ 12.7 µg/mL) | 15 µM (≈ 6.33 µg/mL) | 30 µM (≈ 12.7 µg/mL) | 30 µM (≈ 12.7 µg/mL) | 8 mm | 28.1 µg/mL (≈ 66.6 µM) | 30 µM (≈ 12.7 µg/mL) | IC50 [20]: 131 µM; IC50 [21]: 83.1 µM
5 | [H]/N=C(/N)N[C@H]1[C@H](O)[C@@H](O)[C@H](O[C@@H]2O[C@@H](C)[C@](O)(C=O)[C@H]2O[C@@H]2O[C@@H](CO)[C@H](O)[C@@H](O)[C@@H]2NC)[C@@H](N/C(N)=N\[H])[C@@H]1O [Streptomycin sulphate, streptomycin sulphate, reference compound] |  |  |  |  |  |  |  |  |  |  |  |  |  |  |  |  |  | inhibition at 10 µM [18]: 75.1%
6 | Cc1cccc(NC(=O)CSc2nc3ccccc3n2C(=O)c2ccccc2)c1 [Compound 19, 2-(1-Benzoyl-1H-benzo[d]imidazol-2-ylthio)-N-m-tolylacetamide] | > 50 µg/mL | 50 µg/mL (≈ 125 µM) | 31 µM (≈ 12.4 µg/mL) | 50 µg/mL (≈ 125 µM) | > 50 µg/mL | 50 µg/mL (≈ 125 µM) | > 50 µg/mL | > 50 µg/mL | 31 µM (≈ 12.4 µg/mL) |  | 31 µM (≈ 12.4 µg/mL) | 16 µM (≈ 6.42 µg/mL) | 31 µM (≈ 12.4 µg/mL) | 31 µM (≈ 12.4 µg/mL) |  |  | 31 µM (≈ 12.4 µg/mL) | 
7 | COc1cccc(NC(=O)CSc2nc3ccccc3n2C(=O)c2ccccc2)c1 [Compound 14, 2-(1-Benzoyl-1H-benzo[d]imidazol-2-ylthio)-N-(3-methoxyphenyl)acetamide] | > 50 µg/mL | 50 µg/mL (≈ 120 µM) | 30 µM (≈ 12.5 µg/mL) | > 50 µg/mL | > 50 µg/mL | > 50 µg/mL | > 50 µg/mL | 50 µg/mL (≈ 120 µM) | 30 µM (≈ 12.5 µg/mL) |  | 30 µM (≈ 12.5 µg/mL) | 30 µM (≈ 12.5 µg/mL) | 30 µM (≈ 12.5 µg/mL) | 30 µM (≈ 12.5 µg/mL) |  |  | 30 µM (≈ 12.5 µg/mL) | IC50 [20]: 95.8 µM; IC50 [21]: 95.8 µM
